Laboratory results taken from ChEMBL document CHEMBL1201862, “PubChem BioAssay data set” (2004).
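Protocol summary: plate cells (96-well), add compound at 5 concentrations, incubate 48 h, interpolate endpoints linearly. GI50 = concentration required for 50% inhibition of growth.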 The source made the active and inactive calls. No stated cut-off is given here; in the data, active = GI50 up to about 1.1 µM and inactive = higher.

Columns and labels:
Assay in all cases: NCI anticancer screen, dose series, 48 h
[1] = test system: SNB-19
[2] = test system: SF-268
[3] = test system: BT-549
[4] = test system: KM12
[5] = test system: SK-OV-3
[6] = test system: SNB-75
[7] = test system: OVCAR-5
[8] = test system: OVCAR-8
[9] = test system: A549
[10] = test system: EKVX
[11] = test system: MDA-N
[12] = test system: HCC 2998
[13] = test system: HCT-116
[14] = test system: HOP-92
[15] = test system: NCI-H23
[16] = test system: U-251
[17] = test system: LOX IMVI
[18] = test system: PC-3
[19] = test system: UACC-62
[20] = test system: SR
[21] = test system: RPMI-8226
[22] = test system: MDA-MB-231
[23] = test system: Malme-3M
[24] = test system: K562
[25] = test system: M14
[26] = test system: IGROV-1
[27] = test system: SN12C
[28] = test system: MCF7
[29] = test system: 786-0
[30] = test system: OVCAR-4
[31] = test system: NCI/ADR-RES
[32] = test system: SW-620
[33] = test system: OVCAR-3
[34] = test system: ACHN
[35] = test system: DU-145
[36] = test system: HOP-62
[37] = test system: SK-MEL-28
[38] = test system: CCRF-CEM
[39] = test system: MOLT-4
[40] = test system: RXF 393
[41] = test system: MDA-MB-435
[42] = test system: T47D
[43] = test system: SK-MEL-2
[44] = test system: TK-10
[45] = test system: SF-539
[46] = test system: HT-29
[47] = test system: NCI-H226
[48] = test system: CAKI-1
[49] = test system: UACC-257
[50] = test system: COLO 205
[51] = test system: HCT-15
[52] = test system: Hs-578T
[53] = test system: SF-295
[54] = test system: HL-60
[55] = test system: UO-31
[56] = test system: SK-MEL-5
[57] = test system: A498
[58] = test system: NCI-H522
[59] = test system: NCI-H460

CCN(CC)CCC(=O)c1ccc(Oc2ccc(F)cc2)cc1 was tested, and the GI50 [1] was 18 µM (inactive), the GI50 [2] was 18.3 µM (inactive) and the GI50 [3] was 18.3 µM (inactive). For the same compound, the GI50 [4] was 12.2 µM (inactive), the GI50 [5] was > 100 µM (inactive) and the GI50 [6] was 26.7 µM (inactive). The GI50 [7] was 17.9 µM (inactive), the GI50 [8] was 22.9 µM (inactive) and the GI50 [9] was > 100 µM (inactive). The GI50 [10] was 20.6 µM (inactive), the GI50 [11] was 18 µM (inactive) and the GI50 [12] was 20 µM (inactive). The GI50 [13] was 16.6 µM (inactive), the GI50 [14] was 18.3 µM (inactive) and the GI50 [15] was 20.6 µM (inactive). For the same compound, the GI50 [16] was 17.1 µM (inactive), the GI50 [17] was 15.4 µM (inactive) and the GI50 [18] was 24 µM (inactive). The GI50 [19] was 17.9 µM (inactive), the GI50 [20] was 12.5 µM (inactive) and the GI50 [21] was 4.57 µM (inactive). The GI50 [22] was 17.1 µM (inactive), the GI50 [23] was 18.5 µM (inactive) and the GI50 [24] was 38.3 µM (inactive). The GI50 [25] was 18.3 µM (inactive), the GI50 [26] was 20.3 µM (inactive) and the GI50 [27] was 18.2 µM (inactive). The GI50 [28] was 17.9 µM (inactive), the GI50 [29] was 14.8 µM (inactive) and the GI50 [30] was 39.4 µM (inactive). The GI50 [31] was 26.2 µM (inactive), the GI50 [32] was 18.4 µM (inactive) and the GI50 [33] was 17.1 µM (inactive). For the same compound, the GI50 [34] was 18.4 µM (inactive), the GI50 [35] was 23.8 µM (inactive) and the GI50 [36] was 22.3 µM (inactive). For the same compound, the GI50 [37] was 16.4 µM (inactive), the GI50 [38] was 20.6 µM (inactive) and the GI50 [39] was 20.2 µM (inactive). The GI50 [40] was 16.2 µM (inactive), the GI50 [41] was 17.5 µM (inactive) and the GI50 [42] was 20 µM (inactive). For the same compound, the GI50 [43] was 46.2 µM (inactive), the GI50 [44] was 17.5 µM (inactive) and the GI50 [45] was 17.3 µM (inactive). For the same compound, the GI50 [46] was 19.8 µM (inactive), the GI50 [47] was > 100 µM (inactive) and the GI50 [48] was 17.1 µM (inactive). The GI50 [49] was 17.8 µM (inactive), the GI50 [50] was 19.2 µM (inactive) and the GI50 [51] was 18.2 µM. For the same compound, the GI50 [52] was 24.2 µM (inactive) and the GI50 [53] was 39.4 µM (inactive).
In the case of CCOC(=O)c1nnc2c(C(=O)OCC)c3ccccc3n2c1N, the GI50 [1] is reported as 4.93 µM (inactive), the GI50 [2] is reported as 19.3 µM (inactive) and the GI50 [3] is reported as 13.7 µM (inactive). The GI50 [4] was 4.43 µM (inactive), the GI50 [5] was 6.04 µM (inactive) and the GI50 [6] was 11 µM (inactive). For the same compound, the GI50 [7] was > 100 µM (inactive), the GI50 [8] was 5.16 µM (inactive) and the GI50 [9] was 10.5 µM (inactive). For the same compound, the GI50 [10] was 25.8 µM (inactive), the GI50 [11] was 4.36 µM (inactive) and the GI50 [12] was 34 µM (inactive). For the same compound, the GI50 [13] was 29.3 µM (inactive), the GI50 [15] was 5.94 µM (inactive) and the GI50 [16] was 5.41 µM (inactive). For the same compound, the GI50 [17] was 5.96 µM (inactive), the GI50 [18] was 5.35 µM (inactive) and the GI50 [19] was 2.43 µM (inactive). For the same compound, the GI50 [20] was 6.92 µM (inactive), the GI50 [21] was 1.54 µM (inactive) and the GI50 [22] was 19.8 µM (inactive). The GI50 [23] was 2.1 µM (inactive), the GI50 [24] was 11.2 µM (inactive) and the GI50 [54] was 2.15 µM (inactive). For the same compound, the GI50 [25] was 5.97 µM (inactive), the GI50 [55] was 7.87 µM (inactive) and the GI50 [56] was 5.52 µM (inactive). For the same compound, the GI50 [26] was 1.12 µM (active), the GI50 [27] was 6.67 µM (inactive) and the GI50 [28] was 13.1 µM (inactive). For the same compound, the GI50 [29] was 67 µM (inactive), the GI50 [30] was 5.2 µM (inactive) and the GI50 [57] was 4.85 µM (inactive). For the same compound, the GI50 [31] was 3.61 µM (inactive), the GI50 [32] was 8.26 µM (inactive) and the GI50 [33] was 4.46 µM (inactive). For the same compound, the GI50 [34] was 7.19 µM (inactive), the GI50 [35] was 37.4 µM (inactive) and the GI50 [36] was 68.9 µM (inactive). For the same compound, the GI50 [37] was 5.85 µM (inactive), the GI50 [38] was 2.22 µM (inactive) and the GI50 [39] was 4.41 µM (inactive). For the same compound, the GI50 [58] was 6.21 µM (inactive), the GI50 [40] was > 100 µM (inactive) and the GI50 [41] was 5.05 µM (inactive). The GI50 [42] was 29.9 µM (inactive), the GI50 [43] was 5.15 µM (inactive) and the GI50 [44] was 7.91 µM (inactive). The GI50 [45] was 5.66 µM (inactive), the GI50 [46] was 22.8 µM (inactive) and the GI50 [48] was 7.48 µM (inactive). The GI50 [59] was 8.13 µM (inactive), the GI50 [49] was 2.09 µM (inactive) and the GI50 [50] was 10.2 µM (inactive). For the same compound, the GI50 [51] was 7.66 µM, the GI50 [52] was 7.16 µM (inactive) and the GI50 [53] was 26.9 µM (inactive).
